Test results reported in patent US20210244028A1, “TREATMENT FOR REMOVING ECTOPARASITES FROM FISH” (priority 2018, published 2021).

Tests used:
[1] = test system: Lepeophtheirus salmonis; assay: Immersion treatment of sea lice-challenged salmon in tanks, 1 or 6 weeks post challenge (Example 1); type: in vivo
Text: Eight flow-through treatment tanks each containing 15 fish were set up. The fish were Salmon (Salmo salar) having an average weight of approximately 270 g and of mixed sex. Egg strings removed from ovigerous female Lepeophtheirus salmonis were collected and cultured until infective copepodids were produced. Eight bottles containing approximately 330-350 copepodids were each randomly allocated to a treatment tank (to provide an average of 22 lice per fish).
In preparation for the challenge, water flows in the tanks were stopped and light levels reduced. The lice were then added to each tank and the tanks maintained in total darkness for 6 hours after which light levels were raised and the water flow resumed.
The fish were challenged with sea lice for either one week or for six weeks.
One week after the sea lice challenge, fish in three of the tanks were treated with either 10 ppm w/v, 30 ppm w/v or 50 ppm w/v imidacloprid. One of the tanks was treated with 0.03% DMSO and another tank sham treated with sea water as controls.
For each treatment tank, the appropriate amount of imidacloprid (see Table 1) was dissolved in 100 ml of DMSO and mixed with approximately 900 ml of sea water from the experimental tank to obtain a treatment solution. The water flow on the experimental tanks was disabled and the treatment solution was then added.
Fish were exposed for 60 minutes in static water with full aeration and observed during the exposure period. At the end of the exposure period the water was rapidly drained to approximately ⅓ volume, before the flows were resumed in the tanks.
Six weeks after the fish were challenged with sea lice, the fish in the three remaining treatment tanks were treated with either 10 ppm w/v, 30 ppm w/v or 50 ppm w/v imidacloprid. The treatment was carried out in the same way as for the treatment tanks one week post challenge (see 1.2.1).
Eight weeks after the fish were challenged with sea lice, the study was terminated. Fish were over anaesthetised in MS222 (tricaine methanesulfonate) and pithed using an Iki Jime tool.
The length and weight of each fish and external symptoms were recorded. All lice were removed from each fish and note made of sex and stage of development. The lice were stored in ethanol and sex and stage confirmed using stereo microscope.
The data is expressed as prevalence and abundance. Prevalence is defined as the number of hosts infected with one of more individuals of a parasite species divided by the number of hosts examined (including infected and uninfected hosts) and expressed as a percentage.

[2] = test system: Lepeophtheirus salmonis; assay: Relative efficacy study, 60 min static bucket treatment of infected salmon (Example 2.2); type: in vivo
Description: 120 salmon fish (Salmo salar) were divided across five flow-through treatment tanks and acclimated for 24 hours prior to parasite challenge.
Egg strings removed from ovigerous female Lepeophtheirus salmonis were collected and cultured until infective copepodids were produced. The copepodids were then evenly distributed into five bottles containing sea water and stored at ˜10° C. overnight. In preparation for the challenge, water flows in the treatment tanks were stopped and light levels reduced. 650±20 copepodids (˜27 per host) were added to the static water and the tanks maintained in total darkness for 7 hours after which light levels were raised and the water flow resumed.
Fish were randomly divided into ten groups of ten fish and held in static ‘treatment buckets’ containing 30 L of water and high aeration as shown in Table 3. […]
Experimental animals were monitored closely for adverse reactions and the status of the parasite infection. Where possible the time at which all parasites were thought to have detached was recorded. As treatments were performed in static systems, temperature and dissolved oxygen were regularly monitored throughout the procedure and aeration adjusted as required.
After the treatment period, the test animals were removed from the treatment solution and humanly euthanised. Each fish was weighed, measured, and its individual parasite burden assessed. The number of parasites in the treatment solution was also counted and qualitatively assessed for: sex and maturity, apparent signs of neonicotinoid poisoning, and/or potential recovery.
Logistic regression was used to compare parasite clearance after treatment with each of the concentration. Logistic regression analyses were performed using the glm function in R v.2.13.0 and assumed a binomial or quasi-binomial error distribution (determined through the comparison of the null deviance with the degrees of freedom).

[3] = test system: L. salmonis; assay: Field well boat treatment, pre- vs post-treatment sea lice counts (Example 4); type: in vivo; conditions: 20 ppm, 60 minutes, 30 fish per pen, within 24 hours after treatment, pens A-D
Description: The effectiveness of imidacloprid against pre-adult and adult stages of L. salmonis and Caligus sp. infections on farmed Atlantic salmon was investigated by performing pre- and post-treatment sea lice counts on salmon undergoing a treatment with imidacloprid. This trial was conducted at a commercial salmon farm in Norway. The salmon were pumped onto a well boat and were exposed to 20 ppm imidacloprid for 60 minutes. The average weight of the salmon was 3.5 kg and the average number of salmon per pen was 180,000. 30 fish per pen were assessed for L. salmonis and Caligus sp., and the number of each L. salmonis life stage found was recorded. This was performed within 24 hours prior to treatment, and within 24 hours after treatment.
These assessments were made on four pens of salmon in total. Prior to treatment, fish were crowded within the pen to enable them to be pumped into the well boat, which is where the pre-treatment sea lice assessments were conducted. The post-treatment sea lice assessments were made by removing fish from the outflow pipe on the well boat.
At all time points, 3 fish were removed and placed into an anaesthetic bath. This was repeated 10 times until 30 fish had been assessed.
The numbers of sea lice observed per fish for this trial for each of the four tested pens according to sea lice life cycle state, pre- or post-administration of active are presented in Table 5.

[4] = test system: pre-adult and adult sea lice; assay: Timescale of effect on sea lice on killed salmon suspended in treatment water (Example 5)
Description: To determine the timescale of the effect of imidacloprid, salmon infected with pre-adult and adult sea lice were removed from a stock tank and killed using a sharp blow to the head.
For fish exposed to 0 ppm imidacloprid (negative controls), observations were made for 60 minutes. […] Three fish per treatment group were tested.
Observations on the time at which lice left the host, and the sex and stage of the sea louse was noted. Any lice that left the host were transferred to clean sea water immediately. Furthermore, any lice remaining on the host at the end of the exposure period were removed from the host and transferred to clean sea water.
Lice were observed both shortly after and approximately 2 hours after the end of the exposure period.
The ratio of male to female sea lice was around 50:50. The water temperature was around 12° C.

**Q.** With O=[N+]([O-])NC1=NCCN1Cc1ccc(Cl)nc1 [imidacloprid] as the compound, how does the “Overall lice abundances compared with the DMSO control” value ([1]; 10, 30 or 50 ppm w/v, treated one week post challenge) read?
**A.** No significant differences

**Q.** What about the “Time after addition at which no fish were visibly infected with lice” value ([1]; 30 ppm w/v, treated 6 weeks post challenge) of the same compound?
**A.** 59 min

**Q.** What about the “Lesions associated with feeding and attachment of lice” value ([1]; 30 ppm w/v, two days post-treatment) of the same compound?
**A.** almost completely resolved

**Q.** What about the “Time after addition at which no lice were visible on the fish” value ([1]; 50 ppm w/v, treated 6 weeks post challenge) of the same compound?
**A.** 81 min

**Q.** What about the “Lesions associated with feeding and attachment of lice” value ([1]; 50 ppm w/v, two days post treatment) of the same compound?
**A.** almost completely resolved

**Q.** And the “Parasites remained attached to their hosts at the sampling point” value (“Parasites remained attached” below) ([2]; 10 mg/l)?
**A.** 20%

**Q.** And the “Parasites remained attached” value ([2]; 25 mg/l)?
**A.** 3%

**Q.** And the “Parasites remained attached” value ([2]; 15 and 20 mg/l)?
**A.** 8%

**Q.** What about the “Post-treatment sea lice count, Adult Female” value [3] of the same compound?
**A.** 0.0 sea lice per fish

**Q.** And the “Post-treatment sea lice count, Adult Male” value [3]?
**A.** 0.0 sea lice per fish

**Q.** And the “Post-treatment sea lice count, Gravid Female” value [3]?
**A.** 0.0 sea lice per fish

**Q.** What about the “Post-treatment sea lice count, Pre-Adult Female” value [3] of the same compound?
**A.** 0.0 sea lice per fish

**Q.** And the “Post-treatment sea lice count, Pre-Adult Male” value [3]?
**A.** 0.0 sea lice per fish

**Q.** And the “Post-treatment sea lice count, Total” value [3]?
**A.** 0.0 sea lice per fish

**Q.** And the “Lice considered dead at 30 minutes post-exposure” value ([4]; 20 mg/L, of 49 lice exposed)?
**A.** two

**Q.** And the “Lice considered dead at 2 hours p.e.” value ([4]; 50 ppm)?
**A.** 14

**Q.** And the “Lice considered dead at 30 minutes” value ([4]; 50 ppm, of 21 lice exposed)?
**A.** four

**Q.** What about the “Lice considered dead at 2 hours p.e.” value ([4]; 100 ppm) of the same compound?
**A.** 17/28

**Q.** What about the “Lice considered dead at the end of the exposure period” value ([4]; 100 ppm, of 28 lice exposed) of the same compound?
**A.** four

**Q.** What about the “Lice considered dead 2 hours post-exposure” value ([4]; 200 ppm, of 26 lice exposed) of the same compound?
**A.** Six

**Q.** And the “Lice considered dead at the end of the exposure period” value ([4]; 200 ppm, of 26 lice exposed)?
**A.** four

**Q.** What about the “Lice considered dead 30 minutes p.e.” value ([4]; 500 ppm) of the same compound?
**A.** Six out of 20

**Q.** And the “Lice considered dead at 2 hours p.e.” value ([4]; 500 ppm)?
**A.** 15/20

**Q.** And the “Lice that left the host within the first 9 minutes” value ([4]; 500 ppm, dead host, around 12° C.)?
**A.** around 70%

**Q.** What about the “Lice that left the host within the first 15 minutes” value ([4]; between 20 and 200 ppm, dead host, around 12° C.) of the same compound?
**A.** around 50%
